From patent US20080175935A1, “Method to Treat Skin Conditions with Narcissus Tazetta Bulb Extract” (NuSkin International, Inc., priority 2004, published 2008)
Entries after “also recorded” stand apart in the source; their conditions may differ.

Assays:
arNOX [1] = experiment: arNOX assay: ferricytochrome c reduction (superoxide production) in sera; format: biochemical, human; details: for serum activity (cytochrome c reduction) in response to added reagent: sera of aged individuals; for oscillating activity in sera of aged individuals: FIG. 2G (SOD), FIG. 2H (coenzyme Q); for Inhibition by superoxide dismutase: sera from aged individuals; for Superoxide production (reduction of ferricytochrome c), with superoxide dismutase: sera of aged (80-98 y) individuals, n = 10; for amount at which inhibition of age-related cytochrome c reduction reaches a plateau: sera; for further inhibition of ferric cytochrome c reduction when added after maximal inhibition by the other agent: serum, SOD 30 units and coenzyme Q 450 μg added sequentially, 300 sec; for inhibition of ferric cytochrome c reduction activity: untreated serum samples
Text: (§1) Reduction of ferric cytochrome c by superoxide was employed as a standard measure of superoxide formation (Mayo, L. A. and Cumutte, J. (1990) Meth. Enzyme. 186, 567-575. 7. Butler, J, Koppenol, W. H. and Margollash, E. (1982) J. Biol. Chem. 257, 10747).
Assays of ferric cytochrome c reduction in sera compared 53 samples from young (20 to 40 y) and 65 samples from aged (80 to 100) individuals. […]
(§2) Measurement of arNOX activity based on ferricytochrome c reduction as a measure of superoxide production were taken. The rate of reduction of ferricytochrome c was determined from the increase in absorbance at 550 nm with 540 nm as reference. This is a widely accepted method when coupled to superoxide dismutase inhibition for the measurement of superoxide generation. The assay consists of 150 μl (2 mg/ml) of oxidized ferricytochrome c solution and 150 μl serum or 40 μl buffy coats in PBSG buffer (8.06 g NaCl, 0.2 g KCl, 0.18 g Na2HPO4, 0.26 g KH2PO4, 0.13 g CaCl2, 0.1 g MgCl2, 1.35 g glucose dissolved in 1000 ml deionized water, adjusted to pH 7.4, filtered and stored at 4° C.). Rates were determined using a SLM Aminco DW-2000 spectrophotometer (Milton Roy, Rochester, N.Y., USA) in the dual wave length mode of operation with continuous measurements over 1 min every 1.5 min. After 45 min, test compound was added and the reaction was continued for 45 min. A millimolar extinction coefficient of 19.1 cm^−1 was used for reduced ferricytochrome c. (D. M. Morré, F. Guo and D. J. Morré, 2003, Mol. Cell. Biochem. 254: […]).

arNOX [2] = experiment: arNOX assay: ferricytochrome c reduction (superoxide production) by buffy coats; format: cell-based, human; details: for arNOX inhibition, activity at a dilution of 1:50: dilution 1:50 (solids 2 mM), buffy coats from a person; for arNOX inhibition, activity at a dilution of 1:500: dilution 1:500; for arNOX inhibition, activity at a dilution of 1:500 / Rate of reduction of ferricytochrome c, +100 μM Q10: buffy coats; for oscillating activity of buffy coats and sera of aged individuals: FIG. 2, SOD 60 units or coenzyme Q 450 μg added after 45 min, 70-100 y; for Rate of reduction of ferricytochrome c, +100 μM Q10: mean ± SD, negative rates statistically zero
Method: as §1, with “10747). If superoxide dismutase was added to remove the superoxide as it was generated, the reduction of ferric cytochrome c was prevented to confirm that ferric cytochrome c reduction in the assay was due to superoxide.” for “10747).”
Buffy coats were pooled from aged individuals (70-100 y) and the reduction of ferric cytochrome c was observed (FIG. 2) with an oscillating activity. […] This oscillatory reduction of cytochrome c was absent from buffy coat fractions from younger (20-40 y) individuals (FIGS. 2A and 2B). […] The rate of coenzyme Q inhibited ferric cytochrome c reduction was 7-fold greater in buffy coat fractions of 90-94 y individuals as compared to 80-89 y individuals (Table 1). Buffy coats of less than 65 y individuals lacked the activity.
The compounds listed above in Table 4 were tested initially in the standard arNOX assay at a dilution of 1:50. Solids were prepared in water at an initial concentration of approximately 100 mM and then also tested at a dilution of 1:50, i.e., 2 mM. All compounds were evaluated using human buffy coats prepared from a person. Several compounds were evaluated with sera from aged patients as follow: IBR-DORMIN® Narcissus tazetta bulb extract (person), IBR-TOM® aqueous serum of tomato, available from Israeli Biotechnology Research Ltd. Corporation, Tel Aviv, Israel, (person), L-carnosine (person, person), L-ERGO® synthetically derived 1-ergothioneine, available from OXIS Health Products, Inc., Portland, Oreg. (person). Serum and buffy coats gave consistent results. Compounds active at 1:50 dilutions were reassayed with buffy coats at a dilution of 1:500 and compounds active at 1:500 were reassayed with buffy coats at a dilution of 1:5000.
Details of the assay protocol are as follow. Buffy coats, a mixture of lymphocytes and platelets, were obtained from a commercial supplier. The blood samples were maintained at 4° C. prior to collection and assay. Ca. 10^7 cells were added to each assay. Cell numbers were determined using a hemocytometer.
as §2

[3] = tested on: NADH cytochrome c reductase; experiment: NADH-cytochrome c reductase activity in serum; format: biochemical, human; details: serum of either young or aged individuals
Text: (§3) However, the NADH-stimulated activity was about 4 nmoles/min/ml of sera for sera of both young and aged individuals. The aging-specific increment of ca. 2 nmoles/min/mg protein was observed both in the presence or absence of NADH.

[4] = tested on: NADH cytochrome c reductase; experiment: NADH cytochrome c reductase of pig liver microsomes; format: biochemical
Text: as §3

[Cu] [copper]
serum activity (cytochrome c reduction) in response to added reagent (arNOX [1]): did not enhance the activity

COC(=O)c1ccc(O)cc1 [methylparaben, Methylparaben]
effect on the two distinct arNOX activities of the buffy coats (arNOX [2]; buffy coats containing two distinct arNOX activities): inhibited one and had no effect on the other | arNOX inhibition, activity at a dilution of 1:50 (arNOX [2]): active | arNOX inhibition, activity at a dilution of 1:500 (arNOX [2]): inactive

N[C@@H](CCC(=O)N[C@@H](CS)C(=O)NCC(=O)O)C(=O)O [GSH]
serum activity (cytochrome c reduction) in response to added reagent (arNOX [1]): neither stimulates nor inhibits

COc1cc(CNC(=O)CCCC/C=C/C(C)C)ccc1O [capsaicin]
response of arNOX to the drug (arNOX [1]): does not respond

O=C(O)c1cc[c]([Hg][Cl])cc1 [p-chloromercuribenzoate]
serum activity (cytochrome c reduction) in response to added reagent (arNOX [1]): inhibited

Cc1cc(-c2ccc(S(=O)(=O)O)cc2)c2ccc3c(-c4ccc(S(=O)(=O)O)cc4)cc(C)nc3c2n1 [bathocuproenedisulforiate]
serum activity (cytochrome c reduction) in response to added reagent (arNOX [1]): unaffected

CCCOC(=O)c1ccc(O)cc1 [propylparaben, Propylparaben]
arNOX inhibition, activity at a dilution of 1:50 (arNOX [2]): active | arNOX inhibition, activity at a dilution of 1:500 (arNOX [2]): inactive

C[N+](C)(C)[C@@H](Cc1c[nH]c(=S)[nH]1)C(=O)[O-] [L-Ergothioneine]
arNOX inhibition, activity at a dilution of 1:50 (arNOX [2]): mixed results | arNOX inhibition, activity at a dilution of 1:500 (arNOX [2]): inactive

superoxide dismutase
oscillating activity of buffy coats and sera of aged individuals (arNOX [2]): reduced to basal levels | oscillating reduction of ferric cytochrome c (arNOX [2]; buffy coats pooled from aged individuals (70-100 y), SOD added (FIG. 2C)): inhibited completely | oscillating activity in sera of aged individuals (arNOX [1]; listed as SOD): eliminated; also recorded: completely inhibited | Inhibition by superoxide dismutase (arNOX [1]; before proteinase K digestion): 40% | Inhibition by superoxide dismutase (arNOX [1]; following proteinase K digestion): 60% | Superoxide production (reduction of ferricytochrome c), with superoxide dismutase (arNOX [1]; after proteinase K): 0.22 ± 0.1 Nmoles/min/mi/sera | Superoxide production (reduction of ferricytochrome c), with superoxide dismutase (arNOX [1]; no proteinase K): 0.42 ± 0.1 Nmoles/min/mi/sera | amount at which inhibition of age-related cytochrome c reduction reaches a plateau (arNOX [1]; FIG. 3): 45 units | further inhibition of ferric cytochrome c reduction when added after maximal inhibition by the other agent (arNOX [1]): no further inhibition | inhibition of ferric cytochrome c reduction activity (arNOX [1]; 30 units/ml): 40±10% | activity of NADH cytochrome c reductase in serum [3]: Neither SOD nor coenzyme Q inhibited

NCCC(=O)N[C@@H](Cc1cnc[nH]1)C(=O)O [L-carnosine, L-Carnosine]
effect on the arNOX activities of a serum sample (arNOX [1]; one experiment, serum sample containing 3 arNOX activities): inhibited one arNOX, stimulated a second arNOX and was without effect on a third

COC1=C(OC)C(=O)C(C/C=C(\C)CC/C=C(\C)CC/C=C(\C)CC/C=C(\C)CC/C=C(\C)CC/C=C(\C)CC/C=C(\C)CC/C=C(\C)CC/C=C(\C)CCC=C(C)C)=C(C)C1=O [coenzyme Q, ubiquinone-10]
oscillating activity of buffy coats and sera of aged individuals (arNOX [2]): reduced to basal levels | oscillating reduction of ferric cytochrome c (arNOX [2]; buffy coats pooled from aged individuals (70-100 y), 100 μM coenzyme Q (FIG. 2D)): inhibited completely | EC50 (arNOX [2]; buffy coats pooled from aged individuals (70-100 y), read-out: EC50 for inhibition of oscillating reduction of ferric cytochrome c): 20 µM | Rate of reduction of ferricytochrome c, +100 μM Q10 (arNOX [2]; group 80-89 years): −0.03 ± 0.02 nmoles min^−1 10^7 cells^−1 | Rate of reduction of ferricytochrome c, +100 μM Q10 (arNOX [2]; group 90-94 years): −0.07 ± 0.07 nmoles min^−1 10^7 cells^−1 | oscillating activity in sera of aged individuals (arNOX [1]): eliminated; also recorded: largely blocked | amount at which inhibition of age-related cytochrome c reduction reaches a plateau (arNOX [1]; FIG. 4): about 450 μg | further inhibition of ferric cytochrome c reduction when added after maximal inhibition by the other agent (arNOX [1]): no further inhibition | inhibition of ferric cytochrome c reduction activity (arNOX [1]; 300 μg/ml): 40% | activity of NADH cytochrome c reductase in serum [3]: Neither SOD nor coenzyme Q inhibited | activity of authentic NADH cytochrome c reductase of pig liver microsomes [4]: did not significantly inhibit

OO [hydrogen peroxide]
serum activity after oxidation of protein SH (arNOX [1]; dilute (0.01%) hydrogen peroxide followed by catalase): inactive

Cc1cc(-c2ccccc2)c2ccc3c(-c4ccccc4)cc(C)nc3c2n1 [bathocuproene]
serum activity (cytochrome c reduction) in response to added reagent (arNOX [1]): unaffected

(−)-epigallocatechin gallate
response of arNOX to the drug (arNOX [1]): does not respond

Catalase
serum activity (cytochrome c reduction) in response to added reagent (arNOX [1]): without effect
